Experiments:
BBCEC monolayers [1] = conditions: +saponin, published value; cited from earlier work
BBCEC monolayers [2] = assay: Transcytosis across BBCEC monolayers (in vitro BBB model); assay type: cell-based, bovine
Text: FIG. 10 assesses the ability of several agents to interfere with p97 transyctosis. FIG. 10a, transcytosis of I125-P97 was compared in the presence of cold p97 (5 micromolar), Lf (5 micromolar), and Tf (5 micromolar). […] FIG. 10c, RAP, a known poly-peptide inhibitor of the LDL-Receptor family was applied to the cells (25 micrograms/ml).
(§1) FIG. 11 examines the accumulation and transcytosis of p97. FIG. 11a, of [^125I]-p97, [^125I]-BSA and [^125I]-holo-transferrin one hour after i.v. injection. The radioactivity in brain was compared between the three compounds. (n=3); FIG. 11b, Accumulation of p97 and transferrin into the mouse brain parenchyma. In situ brain perfusion was performed with human [^125I]-p97 or [^125I]-holo-transferrin at a final concentration of 10 nM via a catheter inserted in the right common carotid artery. The volume of distribution (VD) of [^125I]-proteins were obtained in the whole brain homogenate (white bars), in brain capillaries (solid bars) and in brain parenchyma (hatched bars) after isolation of the right hemisphere and capillary depletion. Results were obtained for p97 (n=10) and for holo-transferrin (n=6); FIG. 11c, Transcytosis of p97 across BBCEC monolayers. Transcytosis experiments were performed 37° C. (open circles) and 4° C. (closed circles) with BBCEC monolayers. [^125I]-p97 (1 mg/ml) was added to the upper side of the cell-covered filter. One representative experiment is shown (n=4); FIG. 11d, Preferential transport of p97 across the BBCEC monolayers. Apical-to-basal and basal-to-apical transport of [^125I]-p97 (25 nM) was measured for 2 hrs at 37° C. At the end of the experiment, [^125I]-p97 was assessed in the lower or upper chambers of each well by TCA precipitation (n=4).
FIG. 13 illustrates the transcytosis and accumulation of p97 and transferrin in BBCEC monolayers. FIG. 13a, Transcytosis experiments were performed at 37° C. (solid bars) or 4° C. (white bars). [^125I]-p97 or bovine [^125I]-holo-transferrin (1 mg/ml) was added to the upper side of the cell-covered filter. At the end of the experiment, radiolabelled proteins were measured in the lower chamber of each well by TCA precipitation (n=4). Controls were also performed at 37° C. with denatured [^125I]-p97 or bovine [^125I]-holo-transferrin boiled for 30 min (grey bars) (n=2); FIG. 13b, Biospecific interaction analysis was performed with native or boiled p97 for the indicated times. MAb L235 (5 μg) was immobilized on a sensor chip (SM5) using standard procedures incorporating NHS, EDC and ethanolamine. Native and boiled p97 (5 to 30 min) diluted at 1 mg/ml in Ringer/Hepes was cooled and injected into the BIAcore. The surface plasmon resonance response obtained for native p97 and boiled p97 was plotted (in relative units (RU)) as a function of time; FIG. 13c, The accumulation of both proteins into BBEC cells were also measured. Briefly, after incubation at 37° C. (solid bars) or 4° C. (white bars) with either [^125I]-protein, cells were washed four times with cold PBS. Accumulation of both denatured proteins (grey bars) was also measured at 37° C. Filters were then removed, and the radioactivity associated with the cells was quantified (n=3).
FIG. 14 illustrates the stability of p97 and integrity of the BBCEC monolayers following p97 transcytosis. FIG. 14a, Transcytosis experiments were performed at 37° C. and 4° C. by adding p97 (1 mg/ml) to the upper compartment. At the end of the experiment, 50 μl from each lower chamber was used for SDS-polyacrylamide gel electrophoresis. After electrophoresis, the gels were stained with Coomassie Blue. A standard curve was also made with known amounts of recombinant p97 (0-2 μg); FIG. 14b. The gels were dried and scanned to quantify the amount of intact p97 that crossed the BBCEC monolayers at 37° C. and 4° C. (n=3); FIG. 14c, Effect of p97 on sucrose permeability of BBCE cell monolayers co-cultured with astrocytes. […]

[3] = Brain uptake one hour after i.v. injection; assay type: in vivo; conditions: mice, one hour after i.v. injection of [125I]-protein (FIG. 11a)
Protocol: as §1, with “[^125I]-p97 (1 mg/ml) was added to the upper side of the cell-covered filter. One representative experiment is shown (n=4); FIG. 11d, Preferential transport of p97 across the BBCEC monolayers.” left out
A. Brain uptake and in situ brain perfusion. […] The serum and brain samples were collected and the levels of radioactivity were measured. […]

For “transferrin: transferrin (Tf), iron-binding serum protein used as comparator and competitor”, the Kd (BBCEC monolayers [1]) is given as 11 nM, the “Effect of heat-denaturation on passage through BBCEC monolayers” value (BBCEC monolayers [2]; boiled 30 min, 37° C. (FIG. 13a)) is given as “reduced the passage” and the “Effect on transcytosis of 125I-p97” value (BBCEC monolayers [2]; competitor 5 micromolar (FIG. 10a, 10b)) is given as “only the cold p97 successfully reduced”. It also gave a Brain/serum ratio [3] of 0.008.

Reference: patent US7977317B2, “Compositions and methods for modulating blood-brain barrier transport” (Raptor Pharmaceutical Inc., priority 2001, dated 2011)
